{"source": "patent US20120132797A1", "about": "“MEANS AND METHODS FOR DIAGNOSING THYROID DISORDERS” (BASF SE, priority 2009, published 2012)", "test_system": "Wistar (Crl:WI(Han)) rats", "assay": "Mass spectrometry-based plasma metabolite profiling of rats treated with known inducers of thyroid function impairment", "type": "in vivo, rat", "details": "ratio of group medians vs controls", "in_short": "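Rats aged 10-11 weeks, 5/sex/dose vs 10/sex controls, dosed at low and high levels; retro-orbital plasma taken under isoflurane on days 7, 14 and 28 after 16-20 h fast. Polar and non-polar fractions profiled by GC-MS (derivatised) and LC-MS/MS (MRM plus full scan), normalised to pool samples; Welch t-test by sex and day gives p-values and median ratios.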", "key": {"[1]": {"details": "female rats, fh7 (study day 7), Table 3"}, "[2]": {"details": "female rats, fh14 (study day 14), Table 3"}, "[3]": {"details": "female rats, fh28 (study day 28), Table 3"}, "[4]": {"details": "male rats, mh7 (study day 7), Table 4"}, "[5]": {"details": "male rats, mh14 (study day 14), Table 4"}, "[6]": {"details": "male rats, mh28 (study day 28), Table 4"}}}
{"molecule": "CCC(CC)Nc1c([N+](=O)[O-])cc(C)c(C)c1[N+](=O)[O-]", "note": "[Pendimethalin]", "values": [{"measurement": "Arachidonic acid (C20:cis[58,11,14]4)", "setting": "[1]", "value": 2.07}, {"measurement": "Behenic acid (C22:0)", "setting": "[1]", "value": 2.05}, {"measurement": "Cholesterol", "setting": "[1]", "value": 2.09}, {"measurement": "Cysteine", "setting": "[1]", "value": 0.52}, {"measurement": "Docosahexaenoic acid (C22:cis[4,7,10,13,16,19]6)", "setting": "[1]", "value": 1.85}, {"measurement": "Dodecanol", "setting": "[1]", "value": 1.24}, {"measurement": "Eicosanoic acid (C20:0)", "setting": "[1]", "value": 1.52}, {"measurement": "Glycerol phosphate", "setting": "[1]", "value": 1.91}, {"measurement": "Heptadecanoic acid (C17:0)", "setting": "[1]", "value": 1.35}, {"measurement": "Linoleic acid (C18:cis[9,12]2)", "setting": "[1]", "value": 1.38}, {"measurement": "Nervonic acid C24:(cis[15]1)", "setting": "[1]", "value": 3.51}, {"measurement": "Palmitic acid (C16:0)", "setting": "[1]", "value": 1.49}, {"measurement": "Sphingomyelin (d18:1, C16:0)", "setting": "[1]", "value": 2.01}, {"measurement": "Stearic acid (C18:0)", "setting": "[1]", "value": 1.86}, {"measurement": "Threonic acid", "setting": "[1]", "value": 1.85}, {"measurement": "dihomo-gamma-Linolenic acid (C20:cis[8,11,14]3)", "setting": "[1]", "value": 1.77}, {"measurement": "erythro-Sphingosine", "setting": "[1]", "value": 3.26}, {"measurement": "gamma-Linolenic acid (C18:cis[6,9,12]3)", "setting": "[1]", "value": 1.61}, {"measurement": "myo-Inositol-2-phosphate", "setting": "[1]", "value": 2.82}, {"measurement": "threo-Sphingosine", "setting": "[1]", "value": 2.95}, {"measurement": "Arachidonic acid (C20:cis[58,11,14]4)", "setting": "[2]", "value": 2.24}, {"measurement": "Behenic acid (C22:0)", "setting": "[2]", "value": 1.89}, {"measurement": "Cholesterol", "setting": "[2]", "value": 2.17}, {"measurement": "Cysteine", "setting": "[2]", "value": 0.56}, {"measurement": "Docosahexaenoic acid (C22:cis[4,7,10,13,16,19]6)", "setting": "[2]", "value": 1.82}, {"measurement": "Dodecanol", "setting": "[2]", "value": 1.31}, {"measurement": "Eicosanoic acid (C20:0)", "setting": "[2]", "value": 1.82}, {"measurement": "Glycerol phosphate", "setting": "[2]", "value": 1.93}, {"measurement": "Heptadecanoic acid (C17:0)", "setting": "[2]", "value": 1.56}, {"measurement": "Linoleic acid (C18:cis[9,12]2)", "setting": "[2]", "value": 1.63}, {"measurement": "Nervonic acid C24:(cis[15]1)", "setting": "[2]", "value": 2.62}, {"measurement": "Palmitic acid (C16:0)", "setting": "[2]", "value": 1.81}, {"measurement": "Sphingomyelin (d18:1, C16:0)", "setting": "[2]", "value": 1.64}, {"measurement": "Stearic acid (C18:0)", "setting": "[2]", "value": 1.97}, {"measurement": "Threonic acid", "setting": "[2]", "value": 1.79}, {"measurement": "dihomo-gamma-Linolenic acid (C20:cis[8,11,14]3)", "setting": "[2]", "value": 3.05}, {"measurement": "erythro-Sphingosine", "setting": "[2]", "value": 2.60}, {"measurement": "gamma-Linolenic acid (C18:cis[6,9,12]3)", "setting": "[2]", "value": 2.29}, {"measurement": "myo-Inositol-2-phosphate", "setting": "[2]", "value": 2.74}, {"measurement": "threo-Sphingosine", "setting": "[2]", "value": 2.67}, {"measurement": "Arachidonic acid (C20:cis[58,11,14]4)", "setting": "[3]", "value": 2.31}, {"measurement": "Behenic acid (C22:0)", "setting": "[3]", "value": 1.94}, {"measurement": "Cholesterol", "setting": "[3]", "value": 2.44}, {"measurement": "Cysteine", "setting": "[3]", "value": 0.95}, {"measurement": "Docosahexaenoic acid (C22:cis[4,7,10,13,16,19]6)", "setting": "[3]", "value": 1.85}, {"measurement": "Dodecanol", "setting": "[3]", "value": 1.31}, {"measurement": "Eicosanoic acid (C20:0)", "setting": "[3]", "value": 1.61}, {"measurement": "Glycerol phosphate", "setting": "[3]", "value": 2.06}, {"measurement": "Heptadecanoic acid (C17:0)", "setting": "[3]", "value": 1.63}, {"measurement": "Linoleic acid (C18:cis[9,12]2)", "setting": "[3]", "value": 1.36}, {"measurement": "Nervonic acid C24:(cis[15]1)", "setting": "[3]", "value": 2.54}, {"measurement": "Palmitic acid (C16:0)", "setting": "[3]", "value": 1.67}, {"measurement": "Sphingomyelin (d18:1, C16:0)", "setting": "[3]", "value": 1.58}, {"measurement": "Stearic acid (C18:0)", "setting": "[3]", "value": 2.12}, {"measurement": "Threonic acid", "setting": "[3]", "value": 2.05}, {"measurement": "dihomo-gamma-Linolenic acid (C20:cis[8,11,14]3)", "setting": "[3]", "value": 2.43}, {"measurement": "erythro-Sphingosine", "setting": "[3]", "value": 2.81}, {"measurement": "gamma-Linolenic acid (C18:cis[6,9,12]3)", "setting": "[3]", "value": 2.57}, {"measurement": "myo-Inositol-2-phosphate", "setting": "[3]", "value": 2.66}, {"measurement": "threo-Sphingosine", "setting": "[3]", "value": 2.49}, {"measurement": "Behenic acid (C22:0)", "setting": "[4]", "value": 1.94}, {"measurement": "Cholesterol", "setting": "[4]", "value": 1.67}, {"measurement": "Citrate", "setting": "[4]", "value": 0.86}, {"measurement": "Cytosine", "setting": "[4]", "value": 0.79}, {"measurement": "Galactose, lipid fraction", "setting": "[4]", "value": 1.81}, {"measurement": "Glycerol phosphate", "setting": "[4]", "value": 2.06}, {"measurement": "Glycine", "setting": "[4]", "value": 1.11}, {"measurement": "Lignoceric acid (C24:0)", "setting": "[4]", "value": 2.32}, {"measurement": "Mannose", "setting": "[4]", "value": 1.31}, {"measurement": "Nervonic acid C24:(cis[15]1)", "setting": "[4]", "value": 2.90}, {"measurement": "Phospha-tidylcholine (C18:0, 18:2)", "setting": "[4]", "value": 1.26}, {"measurement": "Sphingomyelin (d18:1, C16:0)", "setting": "[4]", "value": 2.10}, {"measurement": "Stearic acid (C18:0)", "setting": "[4]", "value": 1.64}, {"measurement": "Threonic acid", "setting": "[4]", "value": 1.39}, {"measurement": "dihomo-gamma-Linolenic acis (C20:cis[8,11,14]3)", "setting": "[4]", "value": 2.92}, {"measurement": "erythro-Sphingosine", "setting": "[4]", "value": 2.78}, {"measurement": "myo-Inositol-2-phosphate", "setting": "[4]", "value": 3.25}, {"measurement": "threo-Sphingosine", "setting": "[4]", "value": 2.96}, {"measurement": "Behenic acid (C22:0)", "setting": "[5]", "value": 1.90}, {"measurement": "Cholesterol", "setting": "[5]", "value": 2.03}, {"measurement": "Citrate", "setting": "[5]", "value": 0.83}, {"measurement": "Cytosine", "setting": "[5]", "value": 0.92}, {"measurement": "Galactose, lipid fraction", "setting": "[5]", "value": 2.03}, {"measurement": "Glycerol phosphate", "setting": "[5]", "value": 2.38}, {"measurement": "Glycine", "setting": "[5]", "value": 1.15}, {"measurement": "Lignoceric acid (C24:0)", "setting": "[5]", "value": 2.93}, {"measurement": "Mannose", "setting": "[5]", "value": 1.39}, {"measurement": "Nervonic acid C24:(cis[15]1)", "setting": "[5]", "value": 2.99}, {"measurement": "Phospha-tidylcholine (C18:0, 18:2)", "setting": "[5]", "value": 1.25}, {"measurement": "Sphingomyelin (d18:1, C16:0)", "setting": "[5]", "value": 1.97}, {"measurement": "Stearic acid (C18:0)", "setting": "[5]", "value": 2.28}, {"measurement": "Threonic acid", "setting": "[5]", "value": 1.47}, {"measurement": "dihomo-gamma-Linolenic acis (C20:cis[8,11,14]3)", "setting": "[5]", "value": 3.53}, {"measurement": "erythro-Sphingosine", "setting": "[5]", "value": 3.33}, {"measurement": "myo-Inositol-2-phosphate", "setting": "[5]", "value": 3.57}, {"measurement": "threo-Sphingosine", "setting": "[5]", "value": 3.52}, {"measurement": "Behenic acid (C22:0)", "setting": "[6]", "value": 1.79}, {"measurement": "Cholesterol", "setting": "[6]", "value": 2.29}, {"measurement": "Citrate", "setting": "[6]", "value": 0.87}, {"measurement": "Cytosine", "setting": "[6]", "value": 0.81}, {"measurement": "Galactose, lipid fraction", "setting": "[6]", "value": 2.23}, {"measurement": "Glycerol phosphate", "setting": "[6]", "value": 2.34}, {"measurement": "Glycine", "setting": "[6]", "value": 1.32}, {"measurement": "Lignoceric acid (C24:0)", "setting": "[6]", "value": 2.42}, {"measurement": "Mannose", "setting": "[6]", "value": 1.40}, {"measurement": "Nervonic acid C24:(cis[15]1)", "setting": "[6]", "value": 3.07}, {"measurement": "Phospha-tidylcholine (C18:0, 18:2)", "setting": "[6]", "value": 1.32}, {"measurement": "Sphingomyelin (d18:1, C16:0)", "setting": "[6]", "value": 2.03}, {"measurement": "Stearic acid (C18:0)", "setting": "[6]", "value": 2.12}, {"measurement": "Threonic acid", "setting": "[6]", "value": 1.85}, {"measurement": "dihomo-gamma-Linolenic acis (C20:cis[8,11,14]3)", "setting": "[6]", "value": 2.76}, {"measurement": "erythro-Sphingosine", "setting": "[6]", "value": 2.69}, {"measurement": "myo-Inositol-2-phosphate", "setting": "[6]", "value": 2.79}, {"measurement": "threo-Sphingosine", "setting": "[6]", "value": 2.73}]}
